Assay results as given in patent publication US20260256751A1, “COMBINATION OF BETA-2-ADRENERGIC RECEPTOR AGONISTS AND GLP-1 RECEPTOR AGONISTS FOR USE IN TREATING HYPERGLYCAEMIA” (ATROGI AB, priority 2023, published 2026).

How the values were obtained:
[1] = system: male C57Bl/6N mice fed with high-fat, high-sucrose diet; assay: Combination of Compound A and liraglutide in high-fat, high-sucrose diet fed mice (Biological Example 2); assay type: in vivo; details: Compound A hemi-tartrate 1 mg/kg with liraglutide 0.1 mg/kg, subcutaneously, daily for 2 weeks; compared with liraglutide; FIGS. 2-5
Description: 2.5 Months old male C57Bl/6N mice were grouped caged (4-5 mice per cage), kept at 30° C. and fed with high-fat, high-sucrose diet (45% fat) for 5.5 months. The mice were divided into four groups (2-3 mice per cage) according to their fasting blood glucose levels, glucose tolerance, body weight, body fat and lean mass, and treated daily for 2 weeks, subcutaneously with either vehicle, liraglutide (0.1 mg/kg), Compound A (1 mg/kg), or a mixture of liraglutide (0.1 mg/kg) and Compound A (1 mg/kg). The mice were fasted for 5 h and fasting blood glucose and fasting serum insulin levels were recorded. Glucose (2.5 g/kg lean mass) was injected ip and glucose levels were recorded after 15, 30, 60, 90 and 120 min. The results were used to calculate HOMA-IR (fasting blood glucose (mM)×fasting insulin (μIU/mL)/22.5) and glucose tolerance (area under the curves 0-120 min over the 5.5 mM blood glucose level).

[2] = system: differentiated L6-myotubes; details: as described in WO 2019/053427, Biological Example 1 therein; cited from earlier work
[3] = system: differentiated L6-myotubes; details: as described in WO 2019/053427, Biological Example 2 therein; cited from earlier work
β2-adrenergic receptor = biological target: T1, β2-adrenergic receptor (Rattus norvegicus, UniProt P10608); assay: Glucose uptake in the presence of a selective β2-adrenergic receptor inhibitor (Biological Example 1); assay type: cell-based; details: L6-myotubes; Compound A (2HCl salt) 1×10^−5 M in the presence of ICI-118551; FIG. 1
T1 construct: L6-myoblasts were grown in Dulbecco's Modified Eagle's Medium (DMEM); endogenous in cells; host or cells: L6 myoblasts differentiated into myotubes
Description: L6-myoblasts were grown in Dulbecco's Modified Eagle's Medium (DMEM) containing 1 g/L glucose supplemented with 10% fetal bovine serum (FBS), 2 mM L-glutamine, 50 U/mL penicillin, 50 g/mL streptomycin and 10 mM HEPES. Cells were plated at 1x 10^5 cells per mL in 24-well plates. After reaching 90% confluence the cells were grown in medium containing 2% FBS for 7 days where upon cells differentiated into myotubes. […] After 1 h 40 min the cells were washed with warm, glucose free medium twice and another portion of agonist was added to the glucose free medium. After another 20 min of incubation the cells were exposed to 50 nM ^3H-2-deoxyglucose for 10 min before washed in ice cold glucose free medium three times and lysed in 400 µl/well 0.2 M NaOH for 1 h at 60° C.

[4] = system: differentiated L6-myotubes; assay: cAMP production relative to isoprenaline (Biological example 2 of WO 2019/053427); assay type: cell-based; details: 0.25 h, compound at 10 μM, activity relative to isoproterenol at 10 μM
How it was run: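 Values are cAMP levels relative to isoprenaline at equal concentration (final 1×10^−5 M for both). Stimulation lasted 15 min in differentiated L6 myotubes, using HBSS buffer (pH 7.4) containing 1 mM IBMX, 5 mM HEPES and 1% BSA.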

[5] = system: differentiated L6-myotubes; assay: Glucose uptake screen (Biological example 1 of WO 2019/053427); assay type: cell-based; details: compound at 10 μM, activity relative to isoproterenol at 10 μM, read-out: Biological example 1 of WO 2019/053427 (GU)
How it was run: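 Uptake was read out as ^3H-2-deoxyglucose (50 nM, 10 min) radioactivity in NaOH lysates. Beforehand, overnight-starved, differentiated L6 myotubes received compound at 1×10^−5 M with ICI-118551 present for 1 h 40 min, followed by fresh agonist for a further 20 min in glucose-free medium.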

T1 sequence (P10608 whole entry): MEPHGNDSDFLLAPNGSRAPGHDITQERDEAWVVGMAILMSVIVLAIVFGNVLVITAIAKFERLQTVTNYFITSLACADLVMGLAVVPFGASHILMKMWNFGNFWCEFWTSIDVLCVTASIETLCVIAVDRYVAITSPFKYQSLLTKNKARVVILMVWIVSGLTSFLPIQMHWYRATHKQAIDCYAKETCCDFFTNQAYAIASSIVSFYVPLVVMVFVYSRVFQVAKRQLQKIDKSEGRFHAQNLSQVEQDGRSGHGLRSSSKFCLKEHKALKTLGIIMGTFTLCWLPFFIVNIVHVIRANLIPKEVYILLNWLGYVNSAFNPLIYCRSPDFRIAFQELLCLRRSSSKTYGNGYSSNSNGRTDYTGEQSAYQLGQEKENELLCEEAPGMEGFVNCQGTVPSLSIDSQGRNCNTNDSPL

## CC(C)(C)NC[C@H](O)c1cncc(F)c1 [Compound A, (R)-2-(tert-Butylamino)-1-(5-fluoropyridin-3-yl)ethan-1-ol]
[1]
  effects on glucose homeostasis (glycemia, glucose tolerance and insulin sensitivity): additional positive effects
[2]
  glucose uptake: significant glucose uptake
[3]
  cAMP levels induced: without inducing significant levels of cAMP
β2-adrenergic receptor
  receptor mediating the glucose uptake promoted by the compound: mediated through the β2-adrenergic receptor

## CC(C)(C[C@H]1CC[C@@H](NS(C)(=O)=O)CC1)NC[C@H](O)c1cccc(C(F)(F)F)n1 [Compound 463, (S)-2-{1,1-dimethyl-2-[(1s,4R)-4-(mesylamino)cyclohexyl]ethylamino}-1-[6-(trifluoromethyl)-2-pyridyl]-1-ethanol]
[4]
  Emax at 10 µM: < 25%
[5]
  Emax at 10 µM: 50 to 75%

## CC(C)(C[C@H]1CC[C@H](NS(C)(=O)=O)CC1)NC[C@@H](O)c1cccc(C#N)n1 [Compound 428, 6-[(R)-2-{1,1-dimethyl-2-[(1r,4R)-4-(mesylamino)cyclohexyl]ethylamino}-1-hydroxyethyl]-2-pyridinecarobnitrile]
[4]
  Emax at 10 µM: < 25%
[5]
  Emax at 10 µM: < 25%

## CC(C)(CC[C@H]1CC[C@H](O)CC1)NC[C@H](O)c1cncc(F)c1 [Compound 289, (R)-2-{1,1-dimethyl-3-[(1r,4S)-4-hydroxycyclohexyl]propyl-amino}-1-(5-fluoro-3-pyridyl)-1-ethanol]
[4]
  Emax at 10 µM: < 25%
[5]
  Emax at 10 µM: 25 to 50%

## O[C@@H](c1cccc(F)c1)C12CCC(COCc3ccc(Cl)cc3)(CC1)N2 [Compound 395, (S)-(4-{[(p-chlorophenyl)methoxy]methyl}-7-azabicyclo[2.2.1]hept-1-yl)(m-fluorophenyl)methanol]
[4]
  Emax at 10 µM: < 25%
[5]
  Emax at 10 µM: 50 to 75%
